Results on 20 molecules are retold here after US20260285846A1, “REV-ERB AGONISTS FOR TH17-MEDIATED INFLAMMATORY DISORDERS” (UNIVERSITY OF FLORID RESEARCH FOUNDATION, iNCORPORATED, priority 2021, published 2026).

A value given as a limit tells only on which side of the number the result lay.

REV-ERBα LBD, sequence (P20393 with tags, fused parts or gaps DEL324-422): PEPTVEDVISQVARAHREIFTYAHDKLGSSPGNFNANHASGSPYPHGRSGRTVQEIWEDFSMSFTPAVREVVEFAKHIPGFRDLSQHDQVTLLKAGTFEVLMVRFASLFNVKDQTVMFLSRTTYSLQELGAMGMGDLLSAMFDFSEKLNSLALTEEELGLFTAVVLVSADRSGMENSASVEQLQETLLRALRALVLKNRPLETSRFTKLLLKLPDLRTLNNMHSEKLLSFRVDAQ
REV-ERBα LBD, sequence (Q9Y618 2335-2356 partner limits assumed): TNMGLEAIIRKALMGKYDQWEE

The target in this experiment is REV-ERBα LBD (Homo sapiens, UniProt P20393, DEL324-422). The experiment in a line: biochemical. To be noted: FRET assay; 6xHistag-REV-ERBα LBD with FITC-labeled SMRT corepressor peptide; read-out: REVERBα (Agonism of REV-ERBα, EC50). A digest of the protocol:
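Serially diluted ligands were incubated 2 h at 4° C, in triplicate, with E. coli-expressed His-REV-ERBα LBD (281-614 Δ324-422 or 381-579; 4 nM), Tb-anti-His (1 nM) and FITC-labelled SMRT peptide (400 nM). EC50 came from sigmoidal fits of the 520/495 nm TR-FRET ratio.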
Turning to `CC(C)(C)Cn1cc([C@H](NS(=O)(=O)C2CC2)C(F)F)c2cc(F)c(-c3ncc(F)cc3C(F)F)cc21` [Compound 134, (S)—N-(1-(6-(3-(difluoromethyl)-5-fluoropyridin-2-yl)-5-fluoro-1-neopentyl-1H-indol-3-yl)-2,2-difluoroethyl)cyclopropanesulfonamide], the concentration giving a half-maximal response (EC50) (in general, the concentration that produces a half-maximal response) is less than 100 nM.

For `CC(C)(C)Cn1cc([C@H](NS(=O)(=O)C2CCC2)C(F)F)c2cc(F)c(-c3c(C(F)(F)F)ccnc3C#N)cc21` [Compound 135, N-((1S)-1-(6-(2-cyano-4-(trifluoromethyl)pyridin-3-yl)-5-fluoro-1-neopentyl-1H-indol-3-yl)-2,2-difluoroethyl)cyclobutanesulfonamide], the EC50 is less than 100 nM.

With `CC(C)(C)Cn1cc([C@H](NS(=O)(=O)C2CCC2)C(F)F)c2cc(F)c(-c3c(C#N)cccc3C(F)(F)F)cc21` [Compound 136, N-((1S)-1-(6-(2-cyano-6-(trifluoromethyl)phenyl)-5-fluoro-1-neopentyl-1H-indol-3-yl)-2,2-difluoroethyl)cyclobutanesulfonamide], the EC50 is less than 100 nM.

Regarding `CC(C)(C)Cn1cc([C@H](NS(=O)(=O)C2CCC2)C(F)F)c2cc(F)c(-c3cc(F)cnc3C(F)(F)F)cc21` [Compound 137, (S)—N-(2,2-difluoro-1-(5-fluoro-6-(5-fluoro-2-(trifluoromethyl)pyridin-3-yl)-1-neopentyl-1H-indol-3-yl)ethyl)cyclobutanesulfonamide], the EC50 is less than 100 nM.

As for `CC(C)(C)Cn1cc([C@H](NS(=O)(=O)C2CC2)C(F)F)c2cc(F)c(-c3ncc(C#N)cc3C(F)(F)F)cc21` [Compound 138, (S)—N-(1-(6-(5-cyano-3-(trifluoromethyl)pyridin-2-yl)-5-fluoro-1-neopentyl-1H-indol-3-yl)-2,2-difluoroethyl)cyclopropanesulfonamide], the concentration giving a half-maximal response (EC50) was less than 100 nM.

With `Cc1ccc(-c2cc3c(cc2F)c([C@H](NS(=O)(=O)C2CC2)C(F)F)cn3CC(C)(C)C)c(C(F)(F)F)n1` [Compound 139, (S)—N-(2,2-difluoro-1-(5-fluoro-6-(6-methyl-2-(trifluoromethyl)pyridin-3-yl)-1-neopentyl-1H-indol-3-yl)ethyl)cyclopropanesulfonamide], the concentration for a half-maximal effect (EC50) is less than 100 nM.

Turning to `Cc1cc(C(F)(F)F)c(-c2cc3c(cc2F)c([C@H](NS(=O)(=O)C2CC2)C(F)F)cn3CC(C)(C)C)cn1` [Compound 140, (S)—N-(2,2-difluoro-1-(5-fluoro-6-(6-methyl-4-(trifluoromethyl)pyridin-3-yl)-1-neopentyl-1H-indol-3-yl)ethyl)cyclopropanesulfonamide], the EC50 was less than 100 nM.

For the molecule `Cc1cnc(C(F)(F)F)c(-c2cc3c(cc2F)c([C@H](NS(=O)(=O)C2CC2)C(F)F)cn3CC(C)(C)C)c1` [Compound 141, (S)—N-(2,2-difluoro-1-(5-fluoro-6-(5-methyl-2-(trifluoromethyl)pyridin-3-yl)-1-neopentyl-1H-indol-3-yl)ethyl)cyclopropanesulfonamide], the EC50 is less than 100 nM.

For the molecule `Cc1cnc(C(F)(F)F)c(-c2nc3c(cc2F)c([C@H](NS(=O)(=O)C2CC2)C(F)F)cn3CC(C)(C)C)c1` [Compound 142, (S)—N-(2,2-difluoro-1-(5-fluoro-6-(5-methyl-2-(trifluoromethyl)pyridin-3-yl)-1-neopentyl-1H-pyrrolo[2,3-b]pyridin-3-yl)ethyl)cyclopropanesulfonamide], the EC50 was less than 100 nM.

`CC(C)(C)Cn1cc([C@H](NS(=O)(=O)C2CC2)C(F)F)c2cc(F)c(-c3cc(Cl)cnc3C(F)(F)F)cc21` [Compound 143, (S)—N-(1-(6-(5-chloro-2-(trifluoromethyl)pyridin-3-yl)-5-fluoro-1-neopentyl-1H-indol-3-yl)-2,2-difluoroethyl)cyclopropanesulfonamide]: the EC50 is less than 100 nM.

For the molecule `Cc1cnc(-c2cc3c(cc2F)c([C@H](NS(=O)(=O)C2CC2)C(F)F)cn3CC(C)(C)C)c(C(F)(F)F)n1` [Compound 144, (S)—N-(2,2-difluoro-1-(5-fluoro-6-(5-methyl-3-(trifluoromethyl)pyrazin-2-yl)-1-neopentyl-1H-indol-3-yl)ethyl)cyclopropanesulfonamide], the EC50 was less than 100 nM.

Consider `CC(C)(C)Cn1cc([C@H](NS(=O)(=O)C2CC2)C(F)F)c2cc(F)c(-c3cccnc3C(F)(F)F)nc21` [Compound 145, (S)—N-(2,2-difluoro-1-(5-fluoro-1-neopentyl-6-(2-(trifluoromethyl)pyridin-3-yl)-1H-pyrrolo[2,3-b]pyridin-3-yl)ethyl)cyclopropanesulfonamide], for which the EC50 is less than 100 nM.

Take `O=S(=O)(N[C@@H](c1cn(C2CCC2)c2cc(-c3cccnc3C(F)(F)F)c(F)cc12)C(F)F)C1CC1` [Compound 146, (S)—N-(1-(1-cyclobutyl-5-fluoro-6-(2-(trifluoromethyl)pyridin-3-yl)-1H-indol-3-yl)-2,2-difluoroethyl)cyclopropanesulfonamide]: the half-maximal effective concentration (EC50) was less than 100 nM.

Consider `O=S(=O)(N[C@@H](c1cn(C2CCC2)c2nc(-c3cccnc3C(F)(F)F)c(F)cc12)C(F)F)C1CC1` [Compound 147], for which the EC50 is less than 100 nM.

As to `CC(C)(C)Cn1cc([C@H](NS(=O)(=O)C2CC2)C(F)F)c2cc(F)c(-c3cc(F)cnc3C(F)(F)F)nc21` [Compound 148, (S)—N-(2,2-difluoro-1-(5-fluoro-6-(5-fluoro-2-(trifluoromethyl)pyridin-3-yl)-1-neopentyl-1H-pyrrolo[2,3-b]pyridin-3-yl)ethyl)cyclopropanesulfonamide], the half-maximal effective concentration (EC50) is less than 100 nM.

Regarding `O=S(=O)(N[C@@H](c1cn(C2CCC2)c2cc(-c3cc(F)cnc3C(F)(F)F)c(F)cc12)C(F)F)C1CC1` [Compound 149, (S)—N-(1-(1-cyclobutyl-5-fluoro-6-(5-fluoro-2-(trifluoromethyl)pyridin-3-yl)-1H-indol-3-yl)-2,2-difluoroethyl)cyclopropanesulfonamide], the half-maximal effective concentration (EC50) was less than 100 nM.

For the molecule `O=S(=O)(N[C@@H](c1cn(C2CCC2)c2nc(-c3cc(F)cnc3C(F)(F)F)c(F)cc12)C(F)F)C1CC1` [Compound 150, (S)—N-(1-(1-cyclobutyl-5-fluoro-6-(5-fluoro-2-(trifluoromethyl)pyridin-3-yl)-1H-pyrrolo[2,3-b]pyridin-3-yl)-2,2-difluoroethyl)cyclopropanesulfonamide], the EC50 is less than 100 nM.

For the molecule `N#CC1CC(n2cc([C@H](NS(=O)(=O)C3CC3)C(F)F)c3cc(F)c(-c4cc(F)cnc4C(F)(F)F)cc32)C1` (stereo partly drawn) [Compound 151, (S)—N-(1-(1-(3-cyanocyclobutyl)-5-fluoro-6-(5-fluoro-2-(trifluoromethyl)pyridin-3-yl)-1H-indol-3-yl)-2,2-difluoroethyl)cyclopropanesulfonamide], the EC50 was less than 100 nM.

`O=S(=O)(N[C@@H](c1cn(C2CNC2)c2cc(-c3ccc(F)cc3C(F)(F)F)c(F)cc12)C(F)F)C1CC1` [Compound 152, (S)—N-(1-(1-(azetidin-3-yl)-5-fluoro-6-(4-fluoro-2-(trifluoromethyl)phenyl)-1H-indol-3-yl)-2,2-difluoroethyl)cyclopropanesulfonamide]: the EC50 is more than 1000 nM.

On to `CC(C)(C)Cn1cc([C@H](NS(=O)(=O)C2CC2)C(F)F)c2cc(F)c(-c3ccc(F)cc3C(F)(F)F)nc21` [Compound 153, (S)—N-(2,2-difluoro-1-(5-fluoro-6-(4-fluoro-2-(trifluoromethyl)phenyl)-1-neopentyl-1H-pyrrolo[2,3-b]pyridin-3-yl)ethyl)cyclopropanesulfonamide], for which the EC50 is less than 100 nM.
